Results from patent US6472348B1, “Pyridone derivatives and herbicides” (Kumiai Chemical Industry Co., Ltd., priority 1996, dated 2002).

Columns and labels:
Assay type in all cases: in vivo
Design in all cases: scale not given here
Diaitaria ciliaris (Di) = test: Test Example 3: herbicidal effects by upland field foliage treatment
How it was run: (§1)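 Greenhouse test, upland conditions: seeds sown in sand pots of 120 cm^2 area and overlaid with soil; 2 weeks growth; leaves treated; herbicidal injury graded on day 14 after treatment by fixed standards.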

slender amaranth (Am) [1] = test: as above
How it was run: as §1

[2] = test system: common lambsquarters (Ch); test: as above
How it was run: as §1

barnyardgrass (Ec) = test: as above
How it was run: as §1

pale smartweed (Po) [3] = test: as above
How it was run: as §1

rice flatsedge (Ci) = test: as above
How it was run: as §1

China jute (Ab) = test: Test Example 4: crop plant selectivity by upland field soil treatment (cotton), herbicidal effects; settings: evaluated 21st day after application
How it was run: (§2)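 Sand-filled pots, seeds sown then soil-covered; soil application; greenhouse culture; visual scoring of weed control and cotton injury at day 21 post-application.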

slender amaranth (Am) [4] = test: as above; settings: evaluated 21st day after application
How it was run: as §2

green foxtail (Se) = test: as above; settings: evaluated 21st day after application
How it was run: as §2

pale smartweed (Po) [5] = test: as above; settings: evaluated 21st day after application
How it was run: as §2

[6] = 100 g of the active ingredient per 10 ares, evaluated on the 14th day after treatment
[7] = 100 g active ingredient per 10 ares, evaluated 14th day after treatment

Question: Which “Herbicidal effects Di” value (Diaitaria ciliaris (Di); [6]) does the source give for `Cn1c(C(F)(F)F)ccc(-c2cc(Cl)c(Cl)cc2F)c1=O` [1-136] here?
Answer: 5

Question: What about the “Herbicidal effects Am” value (slender amaranth (Am) [1]; [6]) of the same compound?
Answer: 5

Question: And the “Herbicidal effects Ch” value [2, 6]?
Answer: 5

Question: What about the “Herbicidal effects Ec” value (barnyardgrass (Ec); [6]) of the same compound?
Answer: 5

Question: And the “Herbicidal effects Po” value (pale smartweed (Po) [3]; [6])?
Answer: 5

Question: And the “Herbicidal effects Ci” value (rice flatsedge (Ci); [6])?
Answer: 5

Question: What about the “Herbicidal effects Ab” value (China jute (Ab); dose 6.3 g ai/10 a) of the same compound?
Answer: 5

Question: What about the “Herbicidal effects Am” value (slender amaranth (Am) [4]; dose 6.3 g ai/10 a) of the same compound?
Answer: 5

Question: And the “Herbicidal effects Se” value (green foxtail (Se); dose 6.3 g ai/10 a)?
Answer: 5

Question: And the “Herbicidal effects Po” value (pale smartweed (Po) [5]; dose 6.3 g ai/10 a)?
Answer: 5

Question: What does the source list for `CCCc1cc2c(-c3ccc(C(F)(F)F)n(C)c3=O)c(F)cc(Cl)c2o1` [Compound 4-3]?
Answer: Herbicidal effects Di (Diaitaria ciliaris (Di); [7]): 5; Herbicidal effects Am (slender amaranth (Am) [1]; [7]): 5; Herbicidal effects Ch [2, 7]: 5; Herbicidal effects Ec (barnyardgrass (Ec); [7]): 5; Herbicidal effects Po (pale smartweed (Po) [3]; [7]): 5; Herbicidal effects Ci (rice flatsedge (Ci); [7]): 5; Herbicidal effects Ab (China jute (Ab); dose 6.3 g ai/10 a): 5; Herbicidal effects Am (slender amaranth (Am) [4]; dose 6.3 g ai/10 a): 5; Herbicidal effects Se (green foxtail (Se); dose 6.3 g ai/10 a): 5; Herbicidal effects Po (pale smartweed (Po) [5]; dose 6.3 g ai/10 a): 5

Question: Which results are given for `C=CC(O)c1cc(-c2ccc(C(F)(F)F)n(C)c2=O)c(F)cc1Cl` (stereo not shown) [Compound 1-197]?
Answer: Herbicidal effects Di (Diaitaria ciliaris (Di); [7]): 5; Herbicidal effects Am (slender amaranth (Am) [1]; [7]): 5; Herbicidal effects Ch [2, 7]: 5; Herbicidal effects Ec (barnyardgrass (Ec); [7]): 5; Herbicidal effects Po (pale smartweed (Po) [3]; [7]): 5; Herbicidal effects Ci (rice flatsedge (Ci); [7]): 5; Herbicidal effects Ab (China jute (Ab); dose 6.3 g ai/10 a): 5; Herbicidal effects Am (slender amaranth (Am) [4]; dose 6.3 g ai/10 a): 5; Herbicidal effects Se (green foxtail (Se); dose 6.3 g ai/10 a): 5; Herbicidal effects Po (pale smartweed (Po) [5]; dose 6.3 g ai/10 a): 5

Question: Which results are given for `CCON=Cc1cc(-c2ccc(C(F)(F)F)n(C)c2=O)c(F)cc1Cl` [Compound 1-187]?
Answer: Herbicidal effects Di (Diaitaria ciliaris (Di); [7]): 5; Herbicidal effects Am (slender amaranth (Am) [1]; [7]): 5; Herbicidal effects Ch [2, 7]: 5; Herbicidal effects Ec (barnyardgrass (Ec); [7]): 5; Herbicidal effects Po (pale smartweed (Po) [3]; [7]): 5; Herbicidal effects Ci (rice flatsedge (Ci); [7]): 5; Herbicidal effects Ab (China jute (Ab); dose 6.3 g ai/10 a): 5; Herbicidal effects Am (slender amaranth (Am) [4]; dose 6.3 g ai/10 a): 5; Herbicidal effects Se (green foxtail (Se); dose 6.3 g ai/10 a): 5; Herbicidal effects Po (pale smartweed (Po) [5]; dose 6.3 g ai/10 a): 5

Question: What does the source list for `Cn1c(C(F)(F)F)ccc(-c2cc(C#N)c(Cl)cc2F)c1=O` [Compound No. 1-119, 3-(4-chloro-5-cyano-2-fluorophenyl)-1-methyl-6-trifluoromethyl-2(1H)-pyridone]?
Answer: Herbicidal effects Di (Diaitaria ciliaris (Di); [6]): 5; Herbicidal effects Am (slender amaranth (Am) [1]; [6]): 5; Herbicidal effects Ch [2, 6]: 5; Herbicidal effects Ec (barnyardgrass (Ec); [6]): 5; Herbicidal effects Po (pale smartweed (Po) [3]; [6]): 5; Herbicidal effects Ci (rice flatsedge (Ci); [6]): 5; Herbicidal effects Ab (China jute (Ab); dose 6.3 g ai/10 a): 5; Herbicidal effects Am (slender amaranth (Am) [4]; dose 6.3 g ai/10 a): 5; Herbicidal effects Se (green foxtail (Se); dose 6.3 g ai/10 a): 5; Herbicidal effects Po (pale smartweed (Po) [5]; dose 6.3 g ai/10 a): 5

Question: What does the source list for `C#CCOc1cc(-c2ccc(C(F)(F)F)n(N)c2=O)c(F)cc1Cl` [1-178]?
Answer: Herbicidal effects Di (Diaitaria ciliaris (Di); [6]): 5; Herbicidal effects Am (slender amaranth (Am) [1]; [6]): 5; Herbicidal effects Ch [2, 6]: 5; Herbicidal effects Ec (barnyardgrass (Ec); [6]): 5; Herbicidal effects Po (pale smartweed (Po) [3]; [6]): 5; Herbicidal effects Ci (rice flatsedge (Ci); [6]): 5; Herbicidal effects Ab (China jute (Ab); dose 1.6 g ai/10 a): 5; Herbicidal effects Ab (China jute (Ab); dose 6.3 g ai/10 a): 5; Herbicidal effects Am (slender amaranth (Am) [4]; dose 1.6 g ai/10 a): 5; Herbicidal effects Am (slender amaranth (Am) [4]; dose 6.3 g ai/10 a): 5; Herbicidal effects Se (green foxtail (Se); dose 1.6 g ai/10 a): 5; Herbicidal effects Se (green foxtail (Se); dose 6.3 g ai/10 a): 5; Herbicidal effects Po (pale smartweed (Po) [5]; dose 1.6 g ai/10 a): 5; Herbicidal effects Po (pale smartweed (Po) [5]; dose 6.3 g ai/10 a): 5

Question: `CCc1cc2c(Cl)cc(F)c(-c3ccc(C(F)(F)F)n(C)c3=O)c2o1` [Compound 5-2] was tested. Which “Herbicidal effects Di” value (Diaitaria ciliaris (Di); [7]) did it give?
Answer: 5

Question: What about the “Herbicidal effects Am” value (slender amaranth (Am) [1]; [7]) of the same compound?
Answer: 5

Question: And the “Herbicidal effects Ch” value [2, 7]?
Answer: 5

Question: And the “Herbicidal effects Ec” value (barnyardgrass (Ec); [7])?
Answer: 5

Question: And the “Herbicidal effects Po” value (pale smartweed (Po) [3]; [7])?
Answer: 5

Question: What about the “Herbicidal effects Ci” value (rice flatsedge (Ci); [7]) of the same compound?
Answer: 5

Question: And the “Herbicidal effects Ab” value (China jute (Ab); dose 6.3 g ai/10 a)?
Answer: 5

Question: And the “Herbicidal effects Am” value (slender amaranth (Am) [4]; dose 6.3 g ai/10 a)?
Answer: 5

Question: And the “Herbicidal effects Se” value (green foxtail (Se); dose 6.3 g ai/10 a)?
Answer: 5

Question: What about the “Herbicidal effects Po” value (pale smartweed (Po) [5]; dose 6.3 g ai/10 a) of the same compound?
Answer: 5

Question: `Cn1c(C(F)(F)F)ccc(-c2cc(OCC#N)c(Cl)cc2F)c1=O` [1-25] was tested. Which “Herbicidal effects Di” value (Diaitaria ciliaris (Di); [6]) did it give?
Answer: 5

Question: What about the “Herbicidal effects Am” value (slender amaranth (Am) [1]; [6]) of the same compound?
Answer: 5

Question: What about the “Herbicidal effects Ch” value [2, 6] of the same compound?
Answer: 5

Question: And the “Herbicidal effects Ec” value (barnyardgrass (Ec); [6])?
Answer: 5

Question: What about the “Herbicidal effects Po” value (pale smartweed (Po) [3]; [6]) of the same compound?
Answer: 5

Question: What about the “Herbicidal effects Ci” value (rice flatsedge (Ci); [6]) of the same compound?
Answer: 5

Question: What about the “Herbicidal effects Ab” value (China jute (Ab); dose 6.3 g ai/10 a) of the same compound?
Answer: 5

Question: And the “Herbicidal effects Am” value (slender amaranth (Am) [4]; dose 6.3 g ai/10 a)?
Answer: 5

Question: What about the “Herbicidal effects Se” value (green foxtail (Se); dose 6.3 g ai/10 a) of the same compound?
Answer: 5

Question: And the “Herbicidal effects Po” value (pale smartweed (Po) [5]; dose 6.3 g ai/10 a)?
Answer: 5

Question: What does the source list for `Cn1c(C(F)(F)F)ccc(-c2cc(OCC3CC3)c(Cl)cc2F)c1=O` [1-160]?
Answer: Herbicidal effects Di (Diaitaria ciliaris (Di); [6]): 5; Herbicidal effects Am (slender amaranth (Am) [1]; [6]): 5; Herbicidal effects Ch [2, 6]: 5; Herbicidal effects Ec (barnyardgrass (Ec); [6]): 5; Herbicidal effects Po (pale smartweed (Po) [3]; [6]): 5; Herbicidal effects Ci (rice flatsedge (Ci); [6]): 5; Herbicidal effects Ab (China jute (Ab); dose 6.3 g ai/10 a): 5; Herbicidal effects Am (slender amaranth (Am) [4]; dose 6.3 g ai/10 a): 5; Herbicidal effects Se (green foxtail (Se); dose 6.3 g ai/10 a): 5; Herbicidal effects Po (pale smartweed (Po) [5]; dose 6.3 g ai/10 a): 5

Question: Which “Herbicidal effects Di” value (Diaitaria ciliaris (Di); [7]) does the source give for `C#CC(C)Oc1cc(-c2cn(C)c(C(F)(F)F)cc2=O)c(F)cc1Cl` (racemic) [Compound 6-10] here?
Answer: 5

Question: What about the “Herbicidal effects Am” value (slender amaranth (Am) [1]; [7]) of the same compound?
Answer: 5

Question: And the “Herbicidal effects Ch” value [2, 7]?
Answer: 5

Question: And the “Herbicidal effects Ec” value (barnyardgrass (Ec); [7])?
Answer: 5

Question: And the “Herbicidal effects Po” value (pale smartweed (Po) [3]; [7])?
Answer: 5

Question: And the “Herbicidal effects Ci” value (rice flatsedge (Ci); [7])?
Answer: 5

Question: And the “Herbicidal effects Ab” value (China jute (Ab); dose 1.6 g ai/10 a)?
Answer: 4

Question: And the “Herbicidal effects Ab” value (China jute (Ab); dose 6.3 g ai/10 a)?
Answer: 5

Question: What about the “Herbicidal effects Am” value (slender amaranth (Am) [4]; dose 1.6 g ai/10 a) of the same compound?
Answer: 5

Question: What about the “Herbicidal effects Am” value (slender amaranth (Am) [4]; dose 6.3 g ai/10 a) of the same compound?
Answer: 5

Question: And the “Herbicidal effects Se” value (green foxtail (Se); dose 1.6 g ai/10 a)?
Answer: 4

Question: And the “Herbicidal effects Se” value (green foxtail (Se); dose 6.3 g ai/10 a)?
Answer: 5

Question: What about the “Herbicidal effects Po” value (pale smartweed (Po) [5]; dose 1.6 g ai/10 a) of the same compound?
Answer: 5

Question: What about the “Herbicidal effects Po” value (pale smartweed (Po) [5]; dose 6.3 g ai/10 a) of the same compound?
Answer: 5

Question: `CCCC(=O)c1cc(-c2ccc(C(F)(F)F)n(C)c2=O)c(F)cc1Cl` [Compound No. 1-194, 3-[4-chloro-2-fluoro-5-(1-oxobutyl)phenyl]-1-methyl-6-trifluoromethyl-2(1H)-pyridone] was tested. Which “Herbicidal effects Di” value (Diaitaria ciliaris (Di); [7]) did it give?
Answer: 5

Question: And the “Herbicidal effects Am” value (slender amaranth (Am) [1]; [7])?
Answer: 5

Question: And the “Herbicidal effects Ch” value [2, 7]?
Answer: 5

Question: What about the “Herbicidal effects Ec” value (barnyardgrass (Ec); [7]) of the same compound?
Answer: 5

Question: And the “Herbicidal effects Po” value (pale smartweed (Po) [3]; [7])?
Answer: 5

Question: What about the “Herbicidal effects Ci” value (rice flatsedge (Ci); [7]) of the same compound?
Answer: 5

Question: And the “Herbicidal effects Ab” value (China jute (Ab); dose 6.3 g ai/10 a)?
Answer: 5

Question: And the “Herbicidal effects Am” value (slender amaranth (Am) [4]; dose 6.3 g ai/10 a)?
Answer: 5

Question: And the “Herbicidal effects Se” value (green foxtail (Se); dose 6.3 g ai/10 a)?
Answer: 5

Question: And the “Herbicidal effects Po” value (pale smartweed (Po) [5]; dose 6.3 g ai/10 a)?
Answer: 5
